From patent publication US10189813B2, “Formylated N-heterocyclic derivatives as FGFR4 inhibitors” (NOVARTIS AG, priority 2015, dated 2019)
Like-named read-outs stand apart in the source and are kept apart here.

Tests used:
[1] = biological target: T1, FGFR4 (GST-FGFR4(388-802)) (Homo sapiens, UniProt P22455); experiment: In-vitro biochemical kinase assay for FGFR4 (Caliper mobility shift); details: 60 minutes at 30° C.
T1 construct: GST-FGFR4(388-802); GST (N); made in house; host or cells: insect cells
T1 sequence (P22455 388-802): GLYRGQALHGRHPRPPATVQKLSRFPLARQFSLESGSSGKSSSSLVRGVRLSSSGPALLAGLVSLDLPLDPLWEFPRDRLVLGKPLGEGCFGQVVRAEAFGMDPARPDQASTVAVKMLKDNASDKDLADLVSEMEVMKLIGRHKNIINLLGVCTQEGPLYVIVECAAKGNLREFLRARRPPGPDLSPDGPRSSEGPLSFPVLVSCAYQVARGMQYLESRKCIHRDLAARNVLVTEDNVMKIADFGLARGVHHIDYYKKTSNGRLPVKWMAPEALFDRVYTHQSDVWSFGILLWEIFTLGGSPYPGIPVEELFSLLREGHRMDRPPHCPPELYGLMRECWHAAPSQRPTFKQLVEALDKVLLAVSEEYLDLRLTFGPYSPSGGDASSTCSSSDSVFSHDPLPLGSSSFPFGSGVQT
Experimental: In-Vitro Biochemical Kinase Assays for FGFR4
All assays were performed in 384 well microtiter plates. Each assay plate contained 8-point serial dilutions for 40 test compounds, as well as four 8-point serial dilutions of staurosporine as reference compound, plus 16 high and 16 low controls.
(§1) Liquid handling and incubation steps were done on an Innovadyne Nanodrop Express equipped with a robotic arm (Thermo CatX, Caliper Twister II) and an incubator (Liconic STX40, Thermo Cytomat 2C450). The assay plates were prepared by addition of 50 nI per well of compound solution in 90% DMSO. […] Kinase reactions were incubated at 30° C. for 60 minutes and subsequently terminated by addition of 16 μl per well of stop solution (100 mM HEPES pH 7.5, 5% DMSO, 0.1% Caliper coating reagent, 10 mM EDTA, and 0.015% Brij35). Plates with terminated kinase reactions were transferred to the Caliper LC3000 workstations for reading. Phosphorylated and unphosphorylated peptides were separated using the Caliper microfluidic mobility shift technology. Briefly, samples from terminated kinase reactions were applied to the chip. Analytes are transported through the chip by constant buffer flow and the migration of the substrate peptide is monitored by the fluorescence signal of its label. Phosphorylated peptide (product) and unphosphorylated peptide (substrate) are separated in an electric field by their charge/mass ratio. Kinase activities were calculated from the amounts of formed phospho-peptide. IC50 values were determined from percent inhibition values at different compound concentrations by non-linear regression analysis.
Preparation of Compound Dilutions
Test compounds were dissolved in DMSO (10 mM) and transferred into 1.4 mL flat bottom or V-shaped Matrix tubes carrying a unique 2D matrix. The stock solutions were stored at […] if not used immediately. For the test procedure the vials were defrosted and identified by a scanner whereby a working sheet was generated that guided the subsequent working steps.
Compound dilutions were made in 96 well plates. This format enabled the assay of maximally 40 individual test compounds at 8 concentrations (single points) including 4 reference compounds. The dilution protocol included the production of “pre-dilution plates”, “master plates” and “assay plates”.
96 polypropylene well plates were used as pre-dilution plates. A total of 4 pre-dilution plates were prepared including 10 test compounds each on the plate positions A1-A10, one standard compound at A11 and one DMSO control at A12. All dilution steps were done on a HamiltonSTAR robot.
These plates were used directly for the assay which was performed in a total volume of 9.05 μL.

FGFR1 (407-822) = biological target: T2, FGFR1 (407-822) (Homo sapiens, UniProt P11362); experiment: In vitro biochemical assay for FGFR1
T2 construct: FGFR1 (407-822)
T2 sequence (P11362 407-822): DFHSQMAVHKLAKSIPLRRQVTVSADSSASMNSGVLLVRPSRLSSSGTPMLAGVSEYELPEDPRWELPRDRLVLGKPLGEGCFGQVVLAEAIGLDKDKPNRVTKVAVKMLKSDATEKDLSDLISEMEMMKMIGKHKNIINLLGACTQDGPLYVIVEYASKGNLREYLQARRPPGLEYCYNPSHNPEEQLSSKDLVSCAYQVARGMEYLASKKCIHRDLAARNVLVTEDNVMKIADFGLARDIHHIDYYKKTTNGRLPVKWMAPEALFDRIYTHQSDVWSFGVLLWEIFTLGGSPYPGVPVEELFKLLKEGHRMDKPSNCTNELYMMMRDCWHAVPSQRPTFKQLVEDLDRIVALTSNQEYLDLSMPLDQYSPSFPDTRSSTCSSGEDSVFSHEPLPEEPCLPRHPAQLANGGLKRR
Experimental: as §1
(§2) In vitro biochemical assays for FGFR1 (407-822), FGFR2 (406-821) and FGFR3 (411-806) were conducted in a similar manner to the in vitro biochemical assay for FGFR4 described above, using the indicated portions of the kinase domains. The following examples all produced IC50 values >10000 nM in the biochemical FGFR1, FGFR2 and FGFR3 assays: 2, 3, 4, 11, 13, 16, 17, 18, 20, 28, 30.

FGFR2 (406-821) = biological target: T3, FGFR2 (406-821) (Homo sapiens, UniProt P21802); experiment: In vitro biochemical assay for FGFR2
T3 construct: FGFR2 (406-821)
T3 sequence (P21802 406-821): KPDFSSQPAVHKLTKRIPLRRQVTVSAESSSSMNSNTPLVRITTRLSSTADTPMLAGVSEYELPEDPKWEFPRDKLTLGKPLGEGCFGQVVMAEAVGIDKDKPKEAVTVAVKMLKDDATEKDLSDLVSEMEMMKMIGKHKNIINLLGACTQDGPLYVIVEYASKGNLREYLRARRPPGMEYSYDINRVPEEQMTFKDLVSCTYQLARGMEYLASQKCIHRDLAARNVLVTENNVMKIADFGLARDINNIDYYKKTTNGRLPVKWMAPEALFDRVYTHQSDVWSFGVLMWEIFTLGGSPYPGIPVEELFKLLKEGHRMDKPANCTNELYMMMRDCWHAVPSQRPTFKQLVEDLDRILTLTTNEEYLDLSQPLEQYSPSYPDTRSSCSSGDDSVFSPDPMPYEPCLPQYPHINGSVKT
Experimental: as §1, §2

FGFR3 (411-806) = biological target: T4, FGFR3 (411-806) (Homo sapiens, UniProt P22607); experiment: In vitro biochemical assay for FGFR3
T4 construct: FGFR3 (411-806)
T4 sequence (P22607 411-806): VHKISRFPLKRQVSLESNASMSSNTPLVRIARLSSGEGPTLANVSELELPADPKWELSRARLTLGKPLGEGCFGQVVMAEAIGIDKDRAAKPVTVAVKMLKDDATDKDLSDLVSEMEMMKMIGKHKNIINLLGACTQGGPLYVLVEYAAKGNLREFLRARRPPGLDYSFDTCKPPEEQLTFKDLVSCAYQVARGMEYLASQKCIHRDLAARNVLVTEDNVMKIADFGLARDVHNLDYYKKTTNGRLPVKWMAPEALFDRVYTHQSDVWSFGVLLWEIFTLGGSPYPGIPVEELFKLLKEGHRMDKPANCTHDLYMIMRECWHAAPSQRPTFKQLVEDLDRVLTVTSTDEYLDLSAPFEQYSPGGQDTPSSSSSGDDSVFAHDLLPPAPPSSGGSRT
Experimental: as §1, §2

[2] = biological target: BaF3-Tel-FGFR4 cells (TEL fused to cytoplasmic domain of FGFR4) (Homo sapiens, UniProt P22455); experiment: In vitro cellular kinase assay for FGFR4 (BaF3-Tel-FGFR4, MSD capture ELISA of tyrosine phosphorylation); details: 1 hour incubation
Chain of BaF3-Tel-FGFR4 cells (TEL fused to cytoplasmic domain of FGFR4) (P22455 with tags, fused parts or gaps): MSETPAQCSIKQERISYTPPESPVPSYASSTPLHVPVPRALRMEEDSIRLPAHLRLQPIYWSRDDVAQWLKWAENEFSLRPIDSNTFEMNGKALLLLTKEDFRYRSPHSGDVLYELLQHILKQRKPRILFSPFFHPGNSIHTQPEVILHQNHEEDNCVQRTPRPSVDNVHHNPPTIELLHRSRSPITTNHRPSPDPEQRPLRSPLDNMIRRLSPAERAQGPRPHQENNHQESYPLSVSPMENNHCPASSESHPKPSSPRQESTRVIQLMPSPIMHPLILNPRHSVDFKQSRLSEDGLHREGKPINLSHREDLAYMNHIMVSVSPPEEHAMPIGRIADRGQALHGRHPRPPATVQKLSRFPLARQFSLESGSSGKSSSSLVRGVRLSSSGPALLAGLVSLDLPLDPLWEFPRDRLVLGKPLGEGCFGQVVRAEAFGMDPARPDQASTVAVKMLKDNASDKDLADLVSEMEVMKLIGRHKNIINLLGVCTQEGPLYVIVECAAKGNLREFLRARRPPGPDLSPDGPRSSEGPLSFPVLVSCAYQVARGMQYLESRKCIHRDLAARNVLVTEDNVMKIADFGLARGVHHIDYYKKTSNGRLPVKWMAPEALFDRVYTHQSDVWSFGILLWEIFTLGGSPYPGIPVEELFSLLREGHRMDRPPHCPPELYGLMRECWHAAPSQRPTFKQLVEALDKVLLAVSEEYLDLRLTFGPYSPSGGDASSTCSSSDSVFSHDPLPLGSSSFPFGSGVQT

[3] = tested on: HuH-7 hepatocellular carcinoma cells; experiment: CellTiter Glo (CTG) proliferation/viability assay; assay type: cell-based; details: HuH-7 cells, 3 days, half-maximal growth inhibition (GI50), read-out: HUH7 proliferation CTG
Experimental: CellTiter Glo (CTG) Assay:
The functional effect of compounds on cell proliferation is assessed using HuH-7 hepatocellular carcinoma cells obtained from the Japanese Collection of Research Bioresources Cell Bank (Cat# JCRB0403) and cultured in the vendor-recommended medium (DMEM high glucose (Amimed Cat#1-26F01-I), 10% foetal calf serum (Invitrogen Cat#16140-071), 1 mM sodium pyruvate (Amimed Cat#5-60F00-H), 1× Penicillin/Streptomycin (Amimed Cat#4-01F00-H)) at 37° C. in a humidified 5% CO2 incubator. Compound-mediated suppression of cell proliferation/viability is assessed by quantification of cellular ATP levels using the CellTiter-Glo (CTG) reagent (Promega, Cat# G7573). Briefly, cells are seeded at 3′000 cells/well/80 μl fresh medium into tissue-culture-treated 96-well plates (Costar Cat#3904), followed by addition of 20 μl medium containing compound dilutions at 5-fold their final intended concentration. Dose-response effects are assessed by 3-fold serial dilutions of the test compound, starting at 10 μM. Following incubation of the cells for 3 days at 37° C. and 5% CO2, the effect of inhibitors on cell viability is quantified following addition of 50 μl CTG and luminescence measurement (integration time: 500 ms) as per vendor manual, using a correspondingly equipped multi-mode plate reader (M200Pro, TECAN, Switzerland). For data analysis, the assay background value determined in wells containing medium, but no cells, is subtracted from all data points. To enable differentiation of cytotoxic from cytostatic compounds, the number of viable cells is assessed relative to that observed at the time of compound addition using a separate cell plate (day 0). The effect of a particular test compound concentration on cell proliferation/viability is expressed as percentage of the background- and day 0-corrected luminescence reading obtained for cells treated with vehicle only (DMSO, 0.1% f.c.), which is set as 100%, whereas the luminescence reading for wells containing medium only, but no cells, is set as −100%. Compound concentrations leading to half-maximal growth inhibition (GI50) are determined using standard four parameter curve fitting (XLfit 5.2., IDBS, UK).

`COCCNc1cc(NC(=O)N(CC2CCOC2)c2cccc(C=O)n2)ncc1C#N` (racemic) [Example 4, 3-(5-cyano-4-((2-methoxyethyl)amino)pyridin-2-yl)-1-(6-formylpyridin-2-yl)-1-((tetrahydrofuran-3-yl)methyl)urea] showed an IC50 [1] of 0.0019 µM, an IC50 (FGFR1 (407-822)) of over 10 µM and an IC50 (FGFR2 (406-821)) of over 10 µM. For the same molecule, the IC50 (FGFR3 (411-806)) was over 10 µM and the IC50 [2] was 0.268 µM.

`COCCNc1cc(NC(=O)N(CC2CCOC2)c2ccc(CO)c(C=O)n2)ncc1C#N` (racemic) [Example 5, 3-(5-cyano-4-((2-methoxyethyl)amino)pyridin-2-yl)-1-(6-formyl-5-(hydroxymethyl)pyridin-2-yl)-1-((tetrahydrofuran-3-yl)methyl)urea] showed an IC50 [1] of 0.066 µM and an IC50 [2] of 0.234 µM.

`CC(C)Oc1cc(NC(=O)N(C)c2ccc(C(=O)O)c(C=O)n2)ncc1C#N` [Example 8, 6-(3-(5-cyano-4-isopropoxypyridin-2-yl)-1-methylureido)-2-formylnicotinic acid] showed an IC50 [1] of 0.0016 µM and an IC50 [2] of 0.737 µM.

Molecule `CC(C)Oc1cc(NC(=O)N(C)c2ccc(-c3cnn(C)c3)c(C=O)n2)ncc1C#N` [Example 25, 3-(5-cyano-4-isopropoxypyridin-2-yl)-1-(6-formyl-5-(1-methyl-1H-pyrazol-4-yl)pyridin-2-yl)-1-methylurea] has an IC50 [1] of 0.0063 µM.

Work on `CN(C(=O)Nc1cc(NCC(C)(C)O)c(C#N)cn1)c1ccc(-c2cnn(C)c2)c(C=O)n1` [Example 22, 3-(5-cyano-4-((2-hydroxy-2-methylpropyl)amino)pyridin-2-yl)-1-(6-formyl-5-(1-methyl-1H-pyrazol-4-yl)pyridin-2-yl)-1-methylurea] yielded an IC50 [1] of 0.0057 µM, an IC50 ([3]; Homo sapiens, Huh-7, 72 h) of over 3 µM and an IC50 [3] of 1.8 µM. For the same molecule, the IC50 [2] was 0.046 µM.

`COCCNc1cc(Nc2nccn2-c2ccc(-c3cnn(C)c3)c(C=O)n2)ncc1C(F)(F)F` [Example 27, 6-(2-((4-((2-methoxyethyl)amino)-5-(trifluoromethyl)pyridin-2-yl)amino)-1H-imidazol-1-yl)-3-(1-methyl-1H-pyrazol-4-yl)picolinaldehyde] gave an IC50 [1] of 0.34 µM, an IC50 ([3]; Homo sapiens, Huh-7, 72 h) of over 3 µM and an IC50 [2] of 0.568 µM.

For `CCN(C(=O)Nc1cc(NC(C)C)c(C#N)cn1)c1ccc(-c2cnn(C)c2)c(C=O)n1` [Example 11, 3-(5-cyano-4-(isopropylamino)pyridin-2-yl)-1-ethyl-1-(6-formyl-5-(1-methyl-1H-pyrazol-4-yl)pyridin-2-yl)urea], the IC50 [1] was 0.0056 µM, the IC50 (FGFR1 (407-822)) was over 10 µM and the IC50 (FGFR2 (406-821)) was over 10 µM. The IC50 (FGFR3 (411-806)) was over 10 µM and the IC50 [2] was 0.017 µM.

`COCCNc1cc(NC(=O)N(C)c2cccc(C=O)n2)ncc1C#N` [Example 2, 3-(5-cyano-4-((2-methoxyethyl)amino)pyridin-2-yl)-1-(6-formylpyridin-2-yl)-1-methylurea] gave an IC50 (FGFR1 (407-822)) of over 10 µM, an IC50 (FGFR2 (406-821)) of over 10 µM and an IC50 (FGFR3 (411-806)) of over 10 µM.

For `COC1CCN(Cc2ccc(N(C)C(=O)Nc3cc(OC(C)C)c(C#N)cn3)nc2C=O)C1` (racemic) [Example 26, 3-(5-cyano-4-isopropoxypyridin-2-yl)-1-(6-formyl-5-((3-methoxypyrrolidin-1-yl)methyl)pyridin-2-yl)-1-methylurea], the IC50 [1] was 0.017 µM, the IC50 ([3]; Homo sapiens, Huh-7, 72 h) was over 3 µM and the IC50 [2] was 0.501 µM.

`CC(C)Nc1cc(NC(=O)N(C)c2ccc(-c3cnn(C)c3)c(C=O)n2)ncc1C#N` [Example 14, 3-(5-cyano-4-(isopropylamino)pyridin-2-yl)-1-(6-formyl-5-(1-methyl-1H-pyrazol-4-yl)pyridin-2-yl)-1-methylurea] gave an IC50 [1] of 0.0036 µM.

In the case of `CC(C)Oc1cc(NC(=O)N(C)c2ccc(CN3CCN(C)CC3=O)c(C=O)n2)ncc1C#N` [Example 21, 3-(5-cyano-4-isopropoxypyridin-2-yl)-1-(6-formyl-5-((4-methyl-2-oxopiperazin-1-yl)methyl)pyridin-2-yl)-1-methylurea], the IC50 [1] is reported as 0.0048 µM, the IC50 ([3]; Homo sapiens, Huh-7, 72 h) is reported as 0.878 µM and the IC50 [2] is reported as 0.0069 µM.

With `CN(C(=O)Nc1ccc(C#N)cn1)c1ccc(CN2CCCC2=O)c(C=O)n1` [Example 19, 3-(5-cyanopyridin-2-yl)-1-(6-formyl-5-((2-oxopyrrolidin-1-yl)methyl)pyridin-2-yl)-1-methylurea] the IC50 [1] was 0.078 µM.

In the case of `COCCNc1cc(NC(=O)N(C[C@@H]2CCOC2)c2cccc(C=O)n2)ncc1C#N` (single isomer, unassigned) [Example 6], the IC50 [1] is reported as 0.0047 µM and the IC50 [2] is reported as 0.14 µM.

`COCCNc1cc(NC(=O)N(CCOC)c2cccc(C=O)n2)ncc1C#N` [Example 3, 3-(5-cyano-4-((2-methoxyethyl)amino)pyridin-2-yl)-1-(6-formylpyridin-2-yl)-1-(2-methoxyethyl)urea] showed an IC50 (FGFR1 (407-822)) of over 10 µM, an IC50 (FGFR2 (406-821)) of over 10 µM and an IC50 (FGFR3 (411-806)) of over 10 µM.

Molecule `N#Cc1ccc(Nc2ccccc2-c2cccc(C=O)n2)nc1` [Example 1, 6-((2-(6-formylpyridin-2-yl)phenyl)amino)nicotinonitrile] has an IC50 [1] of 0.33 µM.

`COCCNc1cc(NC(=O)N(C[C@H]2CCOC2)c2cccc(C=O)n2)ncc1C#N` (single isomer, unassigned) [Example 7] gave an IC50 [1] of 0.0051 µM and an IC50 [2] of 0.223 µM.

Molecule `CCN(C(=O)Nc1cc(OC(C)C)c(C#N)cn1)c1ccc(-c2cnn(C)c2)c(C=O)n1` [Example 12, 3-(5-cyano-4-isopropoxypyridin-2-yl)-1-ethyl-1-(6-formyl-5-(1-methyl-1H-pyrazol-4-yl)pyridin-2-yl)urea] has an IC50 [1] of 0.0086 µM, an IC50 ([3]; Homo sapiens, Huh-7, 72 h) of 2.14 µM and an IC50 [2] of 0.033 µM.

Molecule `CC(C)Oc1cc(NC(=O)N(C)c2ccc(CN3CCCC3=O)c(C=O)n2)ncc1C#N` [Example 23, 3-(5-cyano-4-isopropoxypyridin-2-yl)-1-(6-formyl-5-((2-oxopyrrolidin-1-yl)methyl)pyridin-2-yl)-1-methylurea] has an IC50 [1] of 0.0007 µM, an IC50 ([3]; Homo sapiens, Huh-7, 72 h) of 0.118 µM and an IC50 [2] of 0.0088 µM.

With `CC(C)Oc1cc(NC(=O)N(C)c2ccc(CN3CCCC3)c(C=O)n2)ncc1C#N` [Example 29, 3-(5-cyano-4-isopropoxypyridin-2-yl)-1-(6-formyl-5-(pyrrolidin-1-ylmethyl)pyridin-2-yl)-1-methylurea] the IC50 [1] was 0.25 µM, the IC50 ([3]; Homo sapiens, Huh-7, 72 h) was over 3 µM and the IC50 [2] was over 3 µM.
